Reference: patent publication EP1510220B1 (priority 1993, dated 1994)
Like-named read-outs stand apart in the source and are kept apart here. Ends that are not written are not given here.

What was measured:
[1] = system: Quiescent ED cells; test: Stimulation of DNA synthesis by mitogens in quiescent ED cells; type: cell-based, human; conditions: [3H]thymidine 16-40 h after stimulation, vs serum-free control; 20% FCS
Method: Quiescent ED cells were exposed to various mitogens, and stimulation of DNA synthesis was determined by [^3H]thymidine incorporation 16-40 h after stimulation. DNA synthesis was stimulated by 20% FCS by 25±6 fold, compared to control cells that remained in serum-free D-MEM throughout. PDGF-BB stimulated ≈3.0 fold, but PDGF-AA stimulated only 2.0 fold.

[2] = system: Quiescent EX cells; test: Stimulation of DNA synthesis by mitogens in quiescent EX cells; type: cell-based, human; conditions: [3H]thymidine 16-32 h after stimulation, vs serum-free control; 20% FCS, IGF-1 25 ng/ml, EGF and bFGF 100 ng/ml, TGF-beta 10 ng/ml, AII and ET-1 100 nM
Method: Quiescent EX cells were then exposed to various mitogens, and stimulation of DNA synthesis was determined by incorporation of [^3H]thymidine 16-32 h after stimulation. DNA synthesis was stimulated by 20% FCS by 8.0±1.5 fold, compared to control cells that remained in serum-free D-MEM throughout. PDGF-BB and PDGF-AA caused a ≈ 3.0 fold stimulation of DNA synthesis. Insulin-like growth factor (IGF-1; 25 ng/ml) provided a 1.2 fold stimulation.

[3] = system: B054 cells (baboon smooth muscle cells); test: cells; type: cell-based; conditions: for minimal effective concentration: Papio anubis
[4] = system: Vascular smooth muscle cells
[5] = system: B054 cells (baboon smooth muscle cells); test: cells; type: cell-based; conditions: Papio anubis, read-out: minimum effective dose (MED), protein synthesis assay

CC[C@H](C)[C@H](NC(=O)[C@H](Cc1ccc(O)cc1)NC(=O)[C@@H](NC(=O)[C@H](CCCNC(=N)N)NC(=O)[C@@H](N)CC(=O)O)C(C)C)C(=O)N[C@@H](Cc1cnc[nH]1)C(=O)N1CCC[C@H]1C(=O)N[C@@H](Cc1ccccc1)C(=O)O [AII, angiotensin II]
stimulation of DNA synthesis [1]: did not stimulate DNA synthesis | stimulation of DNA synthesis [2]: did not significantly stimulate DNA synthesis

CC(=O)O[C@@H]1/C=C\[C@@](C)(O)C(=O)[C@@H](C)C/C=C\[C@H]2[C@H](O)C(C)=C(C)[C@H]3C(Cc4ccccc4)NC(=O)[C@]132 (stereo partly shown) [cytochalasin C]
minimum effective dose (MED), DNA synthesis assay [3]: 0.01 µg/mL

CN[C@@H]1C[C@H]2O[C@@](C)([C@@H]1OC)n1c3ccccc3c3c4c(c5c6ccccc6n2c5c31)C(=O)NC4 [staurosporin]
cytotoxicity grade [4]: 2 | minimal effective concentration ([3]; 5 min, read-out: minimum effective dose (MED), DNA assay): 0.001 µg/mL | minimal effective concentration ([3]; 24 h, read-out: minimum effective dose (MED), DNA synthesis assay): 0.001 µg/mL | minimal effective concentration ([5]; 5 min): 0.1 µg/mL | minimal effective concentration ([5]; 24 h): 0.01 µg/mL

endothelin-1 (CSCSSLMDKECVYFCHLDIIW; ends and bridges not checked; cysteine pairing not given here; UniProt P05305 53-73, looked up) [ET-1]
stimulation of DNA synthesis [1]: did not stimulate DNA synthesis | stimulation of DNA synthesis [2]: did not significantly stimulate DNA synthesis
